This is an account of results in paper PMC7449217, “The FDA-Approved Drug Nelfinavir Inhibits Lytic Cell-Free but Not Cell-Associated Nonlytic Transmission of Human Adenovirus” (Antimicrobial Agents and Chemotherapy, 2020).

One may read the EC50 as the concentration that produces a half-maximal response. A lower EC50 goes with an effect from little substance.

The subject of one data set is A549 cells. The experiment in a line: TC50, number of nuclei in noninfected treated cells. In kind it is cell-based, human. Here is the method:
Per 96-well plate, 15,000 A549 cells, 10,000 HeLa cells, 30,000 HBECs, 30,000 HCE cells, or 30,000 CMT-93 cells were seeded in 100 μl of the respective supplemented medium and allowed to settle for 1 h at room temperature (RT) prior to cell culture incubation at 37°C with 5% CO2 and 95% humidity. The following day, the medium was replaced with 50 μl of the respective virus stock dilution giving rise to 5 to 50 plaques per 96-well plate. Fifty microliters of nelfinavir to obtain a 0.1 to 50 μM final concentration or the DMSO solvent control was also added, both in supplemented medium. For each experiment, a noninfected, treated control was performed. For uphill plaque assays, the medium volume was increased to 150 μl with identical virus and drug concentrations. For wash-in/washout experiments, the virus was incubated on cells in supplemented medium for 1 h at 37°C, cells were washed with PBS, and a 100-μl drug dilution in supplemented medium was added. All experiments were performed in four technical replicates or as indicated. Cells were incubated under standard cell culture conditions. At the indicated times postinfection, the cells were fixed, and the nuclei were stained for 1 h at RT by the addition of 33 μl 16% (wt/vol) paraformaldehyde (PFA) and 4 μg/ml Hoechst 33342 (Sigma-Aldrich, St. Louis, MO, USA) in PBS. Cells were washed three times with PBS and stored in PBS supplemented with 0.02% N3 for infections with viruses harboring a GFP transgene. For wild-type (wt) viruses, cells were quenched in PBS supplemented with 50 mM NH4Cl, permeabilized using 0.2% (vol/vol) Triton X-100 in PBS, and blocked with 0.5% (wt/vol) bovine serum albumin (BSA) in PBS. […] Plates were imaged on either an IXM-XL or an IXM-C automated high-throughput fluorescence microscope (Molecular Devices, San Jose, CA, USA) using a 4× objective in wide-field mode. Hoechst staining was recorded in the 4′,6-diamidino-2-phenylindole (DAPI) channel, the fluorescein isothiocyanate (FITC)/GFP channel was acquired for viral GFP, and the tetramethyl rhodamine isothiocyanate (TRITC)/Texas Red channel was acquired for hexon immunofluorescence staining.
The infection phenotype for each well was quantified using Plaque2.0 ([101]). The number of plaques was determined based on the infection signal (viral GFP or hexon immunofluorescence staining). […] Data were plotted, and the EC50 (infected and treated cells), the TC50 (noninfected, treated cells), as well as the corresponding standard errors (SE) were determined using curve fitting in GraphPad (version 8.1.2; GraphPad Software, Inc.) using three-parameter inhibitor concentration-versus-response nonlinear regression. The mean TI50 was calculated as the […] ratio of the means. The TI50 SE was calculated by error propagation.

The next data set has as its system HBEC. In kind it is cell-based. The conditions noted are these: human. Here is the method: (§1) Per 96-well plate, 15,000 A549 cells, 10,000 HeLa cells, 30,000 HBECs, 30,000 HCE cells, or 30,000 CMT-93 cells were seeded in 100 μl of the respective supplemented medium and allowed to settle for 1 h at room temperature (RT) prior to cell culture incubation at 37°C with 5% CO2 and 95% humidity. The following day, the medium was replaced with 50 μl of the respective virus stock dilution giving rise to 5 to 50 plaques per 96-well plate. Fifty microliters of nelfinavir to obtain a 0.1 to 50 μM final concentration or the DMSO solvent control was also added, both in supplemented medium. For each experiment, a noninfected, treated control was performed. For uphill plaque assays, the medium volume was increased to 150 μl with identical virus and drug concentrations. For wash-in/washout experiments, the virus was incubated on cells in supplemented medium for 1 h at 37°C, cells were washed with PBS, and a 100-μl drug dilution in supplemented medium was added. All experiments were performed in four technical replicates or as indicated. Cells were incubated under standard cell culture conditions. At the indicated times postinfection, the cells were fixed, and the nuclei were stained for 1 h at RT by the addition of 33 μl 16% (wt/vol) paraformaldehyde (PFA) and 4 μg/ml Hoechst 33342 (Sigma-Aldrich, St. Louis, MO, USA) in PBS. Cells were washed three times with PBS and stored in PBS supplemented with 0.02% N3 for infections with viruses harboring a GFP transgene. For wild-type (wt) viruses, cells were quenched in PBS supplemented with 50 mM NH4Cl, permeabilized using 0.2% (vol/vol) Triton X-100 in PBS, and blocked with 0.5% (wt/vol) bovine serum albumin (BSA) in PBS. Cells were incubated with 381.7 ng/ml mouse anti-HAdV hexon protein antibody (Mab8052; Sigma-Aldrich, St. Louis, MO, USA) and subsequently stained using 2 μg/ml goat anti-mouse-Alexa Fluor 594 (catalog number A21203 or A32742; Thermo Fisher Scientific, Waltham, MA, USA). Plates were imaged on either an IXM-XL or an IXM-C automated high-throughput fluorescence microscope (Molecular Devices, San Jose, CA, USA) using a 4× objective in wide-field mode. Hoechst staining was recorded in the 4′,6-diamidino-2-phenylindole (DAPI) channel, the fluorescein isothiocyanate (FITC)/GFP channel was acquired for viral GFP, and the tetramethyl rhodamine isothiocyanate (TRITC)/Texas Red channel was acquired for hexon immunofluorescence staining.
(§2) The infection phenotype for each well was quantified using Plaque2.0 ([101]). The number of plaques was determined based on the infection signal (viral GFP or hexon immunofluorescence staining). Nuclei stained with Hoechst were segmented by using CellProfiler ([178]). Infected nuclei were classified based on the median infection signal per nucleus in CellProfiler. Data were plotted, and the EC50 (infected and treated cells), the TC50 (noninfected, treated cells), as well as the corresponding standard errors (SE) were determined using curve fitting in GraphPad (version 8.1.2; GraphPad Software, Inc.) using three-parameter inhibitor concentration-versus-response nonlinear regression. The mean TI50 was calculated as the […] ratio of the means. The TI50 SE was calculated by error propagation.

The next data set relates to HCE cells. It counts as cell-based. The following applies: human. As for the experimental part: as §1, §2
A further data set relates to HeLa cells. It counts as cell-based. The following applies: human. As for the experimental part: as §1, §2
The subject of the next data set is MAdV-3-pIX-FS2A-GFP. The experiment in a line: fluorescence-based plaque-forming assay, CMT-93 cells. In kind it is cell-based, mouse adenovirus. As for the experimental part:
Per 96-well plate, 15,000 A549 cells, 10,000 HeLa cells, 30,000 HBECs, 30,000 HCE cells, or 30,000 CMT-93 cells were seeded in 100 μl of the respective supplemented medium and allowed to settle for 1 h at room temperature (RT) prior to cell culture incubation at 37°C with 5% CO2 and 95% humidity. The following day, the medium was replaced with 50 μl of the respective virus stock dilution giving rise to 5 to 50 plaques per 96-well plate. Fifty microliters of nelfinavir to obtain a 0.1 to 50 μM final concentration or the DMSO solvent control was also added, both in supplemented medium. For each experiment, a noninfected, treated control was performed. […] Plates were imaged on either an IXM-XL or an IXM-C automated high-throughput fluorescence microscope (Molecular Devices, San Jose, CA, USA) using a 4× objective in wide-field mode. Hoechst staining was recorded in the 4′,6-diamidino-2-phenylindole (DAPI) channel, the fluorescein isothiocyanate (FITC)/GFP channel was acquired for viral GFP, and the tetramethyl rhodamine isothiocyanate (TRITC)/Texas Red channel was acquired for hexon immunofluorescence staining.
The infection phenotype for each well was quantified using Plaque2.0 ([101]). The number of plaques was determined based on the infection signal (viral GFP or hexon immunofluorescence staining). […] The mean TI50 was calculated as the EC50/TC50 ratio of the means. […]

In the next data set the test system is HIV aspartyl protease. The arrangement: method as in PMID 9397180, PMID 9725550. The conditions noted are these: cited from earlier work.

Counter-ions that a name gives are not always drawn. Like-named read-outs stand apart in the source and are kept apart here.

As for `Cc1c(O)cccc1C(=O)N[C@@H](CSc1ccccc1)[C@H](O)CN1C[C@H]2CCCC[C@H]2C[C@H]1C(=O)NC(C)(C)C` [Nelfinavir, Nelfinavir mesylate], the TC50 in the data set with A549 cells (human, 1 days) came out at 49.50 µM; with A549 cells (human, 6 days), 19.08 µM; in the data set on A549 cells (noninfected A549, nuclei, 3 dpi, line HAdV-C5) it was 11.91 µM; with HBEC (6 days) it was 13.33 µM; in the data set with HBEC (8 days), 12.74 µM; with HCE cells (5 days), 29.73 µM. Moreover, the TC50 in the data set with HCE cells (8 days) came out at 19.59 µM; in the data set with HeLa cells (4 days) it was 29.85 µM; in the data set on HeLa cells (5 days), 41.69 µM. In addition, in the data set on A549 cells (human, 82 h), the “TC50 (50% loss of cell nuclei)” value came out at 10.01 µM. The “TI50 (TC50/IC50)” value in the data set on MAdV-3-pIX-FS2A-GFP (MAdV-3-pIX-FS2A-GFP in CMT-93, 4 dpi, GFP) is 3.00. This compound also yielded a concentration giving a half-maximal response (EC50) with MAdV-3-pIX-FS2A-GFP (Murine mastadenovirus A, CMT93) of 8.7 µM. For the same compound, the inhibitory concentration result in the data set with HIV aspartyl protease is given as “low-nanomolar range”.
